Assay results reported in patent US6861443B2, “Positive modulators of nicotinic receptors” (Astra AB, priority 1998, dated 2005).
Read-outs that look alike come from different tables or passages of the source.

Experiments:
5-HT3 receptors = details: unpublished results / in press; cited from earlier work
nAChR α7 = nAChR α7 (Homo sapiens, UniProt P36544); details: FIG. 6
Procedure: To screen for α7 modulatory activity, the 96 well plate is placed in a fluorescence imaging plate reader (FLIPR) and test compounds along with an α7 agonist are applied simultaneously to all wells. Receptor activation is measured by calcium influx into cells which is quantified by the increase in fluorescence intensity of each well, recorded simultaneously by the FLIPR. A modulatory effect is determined by the increase in fluorescence over that of agonist alone. Similarly, to test for nAChR α7 agonist activity, test compounds along with an α7 modulator are applied simultaneously to all wells. Receptor activation is measured by calcium influx into cells which is quantified by the increase in fluorescence intensity of each well, recorded simultaneously by the FLIPR. An agonist effect is determined by the increase in fluorescence over that of modulator alone.
Effect of nAChR α7 modulator on agonist activity was measured by Ca^2+ flux through nAChR α7 expressed in HEK-293 cells. The nicotinic agonist (−)-Spiro[1-Azabicyclo[2.2.2.]Octane-3,5*-Oxazolidine]-2*-One, was used.

[1] = target: mouse muscle-type nicotinic receptors (Mus musculus, UniProt P02716+P04756+P09690); assay: Efficacy enhancement on other nicotinic receptors; type: cell-based
mouse muscle-type nicotinic receptors, sequence (P04756 21-457): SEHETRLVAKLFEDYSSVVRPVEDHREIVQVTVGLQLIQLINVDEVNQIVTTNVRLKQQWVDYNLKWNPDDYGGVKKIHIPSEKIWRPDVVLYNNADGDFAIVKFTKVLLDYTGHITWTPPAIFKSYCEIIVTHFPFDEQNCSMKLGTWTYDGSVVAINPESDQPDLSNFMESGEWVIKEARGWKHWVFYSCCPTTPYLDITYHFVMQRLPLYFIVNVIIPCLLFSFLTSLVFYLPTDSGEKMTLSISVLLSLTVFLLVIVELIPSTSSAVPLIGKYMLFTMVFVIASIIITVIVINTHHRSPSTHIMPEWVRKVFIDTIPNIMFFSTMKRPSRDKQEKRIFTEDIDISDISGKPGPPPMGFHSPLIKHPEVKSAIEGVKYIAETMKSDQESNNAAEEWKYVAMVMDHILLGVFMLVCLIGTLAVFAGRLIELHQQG
mouse muscle-type nicotinic receptors, sequence (P09690 24-501): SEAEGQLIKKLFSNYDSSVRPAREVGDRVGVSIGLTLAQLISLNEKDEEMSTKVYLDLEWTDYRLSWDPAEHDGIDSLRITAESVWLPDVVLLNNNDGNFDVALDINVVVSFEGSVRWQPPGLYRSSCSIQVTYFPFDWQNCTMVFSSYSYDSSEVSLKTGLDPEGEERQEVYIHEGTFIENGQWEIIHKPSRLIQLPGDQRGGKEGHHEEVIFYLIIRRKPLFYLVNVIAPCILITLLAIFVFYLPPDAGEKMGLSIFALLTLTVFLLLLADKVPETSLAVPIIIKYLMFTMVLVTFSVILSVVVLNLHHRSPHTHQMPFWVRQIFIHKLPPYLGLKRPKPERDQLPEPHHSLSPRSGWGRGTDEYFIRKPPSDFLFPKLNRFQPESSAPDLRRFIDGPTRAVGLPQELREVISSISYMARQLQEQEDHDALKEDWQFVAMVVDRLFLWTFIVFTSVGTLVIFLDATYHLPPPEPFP
mouse muscle-type nicotinic receptors, sequence (P02716 25-520): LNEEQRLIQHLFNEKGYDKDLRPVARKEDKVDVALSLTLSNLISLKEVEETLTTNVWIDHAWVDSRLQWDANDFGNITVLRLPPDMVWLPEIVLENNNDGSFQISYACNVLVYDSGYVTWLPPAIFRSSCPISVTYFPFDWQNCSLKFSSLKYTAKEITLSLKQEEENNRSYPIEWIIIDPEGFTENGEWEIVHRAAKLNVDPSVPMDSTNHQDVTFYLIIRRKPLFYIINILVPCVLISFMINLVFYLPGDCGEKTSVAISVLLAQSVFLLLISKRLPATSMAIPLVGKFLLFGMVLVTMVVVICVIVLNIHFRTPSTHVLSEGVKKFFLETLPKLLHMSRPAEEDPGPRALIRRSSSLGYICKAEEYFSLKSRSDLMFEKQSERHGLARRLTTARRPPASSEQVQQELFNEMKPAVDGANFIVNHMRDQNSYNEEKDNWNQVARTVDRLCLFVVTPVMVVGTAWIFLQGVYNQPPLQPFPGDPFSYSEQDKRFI

α7-nicotinic receptor = assay: Two-electrode voltage-clamp current recording from Xenopus oocytes expressing α7-nicotinic receptors; type: cell-based, human, rat and chick
Procedure: (a) Xenopus Oocyte Current Recording
The Xenopus oocyte has provided a powerful means of assessing the function of proteins thought to be subunits of ligand-gated ion-channels.
Consequently, one convenient technique to assess the enhancement of nicotinic efficacy is two-electrode voltage-clamp recording from Xenopus oocytes expressing α7-nicotinic receptors from cRNA.
Oocytes were removed to OR2 solution (82 mM NaCl, 2.5 mM KCl, 5 mM HEPES, 1.5 mM NaH2PO4, 1 mM MgCl2, 0.1 mM EDTA; pH 7.4). The oocytes were defolliculated by incubation in 25 ml OR2 containing 0.2% collagenase 1A (Sigma) two times for 60 min on a platform vibrating at 1 Hz and stored in Leibovitz's L-15 medium (50 μg/ml gentomycin, 10 Units/ml penicillin, and 10 μg/ml streptomycin). Approximately 50 ng of cRNA was injected in each oocyte the following day. cRNA was synthesised from cDNA using Message Machine (purchased from Abion).
The external recording solution consisted of 90 mM NaCl, 1 mM KCl, 1 mM MgCl2, 1 mM BaCl2, 5 mM HEPES; pH 7.4. […] Oocytes were impaled with two electrodes of 1-2 MΩ tip resistance when filled with 3M KCl. Recordings were begun when membrane potential became stable at potentials negative to −20 mV (resting membrane potentials are less negative when Ba^++ replaces Ca^++ in bathing solutions). Membrane potential was clamped at −80 mV.
Current amplitude was measured from baseline to peak. EC50 values, maximal effect, and Hill slopes were estimated by fitting the data to the logistic equation using GraphPad Prism (GraphPad Software, Inc., San Diego, Calif.).
Increases in agonist efficacy elicited by a positive modulator can be calculated in two ways: • (1) As percent potentiation of current amplitude which is defined as 100(Im−Ic)/Ic where Im is current amplitude in the presence of modulator and Ic is current in the absence of modulator (FIG. 1). • (2) As percent potentiation of “area under curve” of an agonist trace. Area under the curve is a common representation of the total ion flux through the channel (FIG. 2).

nAChR α7, sequence (P36544 23-502): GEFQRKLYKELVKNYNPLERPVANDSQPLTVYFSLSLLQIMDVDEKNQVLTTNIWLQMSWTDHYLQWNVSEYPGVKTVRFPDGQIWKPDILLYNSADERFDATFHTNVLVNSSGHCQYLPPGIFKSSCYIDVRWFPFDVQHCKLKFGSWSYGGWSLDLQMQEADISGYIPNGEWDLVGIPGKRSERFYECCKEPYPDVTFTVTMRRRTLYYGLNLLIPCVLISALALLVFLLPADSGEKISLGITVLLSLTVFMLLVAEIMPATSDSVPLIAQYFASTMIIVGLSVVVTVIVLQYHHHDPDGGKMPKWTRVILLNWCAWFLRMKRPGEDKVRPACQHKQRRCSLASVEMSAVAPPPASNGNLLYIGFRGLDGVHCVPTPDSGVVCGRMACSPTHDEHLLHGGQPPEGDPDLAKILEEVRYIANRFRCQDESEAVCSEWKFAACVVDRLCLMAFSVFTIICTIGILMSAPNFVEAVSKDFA

NS(=O)(=O)c1cc2c(cc1Cl)NC(C1CC3C=CC1C3)NS2(=O)=O (stereo not drawn) [cyclothiazide]
effect on 5-HT3 receptors (5-HT3 receptors): block 5-HT3 receptors

O=C1NCC2(CN3CCC2CC3)O1 (single isomer, unassigned; (-))
agonist activity as Ca2+ flux signal, agonist alone (nAChR α7; no modulator): No discernible signal
agonist activity as Ca2+ flux signal, agonist together with modulator (nAChR α7; with nAChR α7 modulator): significant increase in agonist activity

Oc1ccc2[nH]ccc2c1 [5-hydroxyindole]
increase in efficacy on other nicotinic receptors [1]: not seen on any other nicotinic receptors
increase in area under the curve (α7-nicotinic receptor; 0.5 mM 5-OHi, saturating agonist (3 mM ACh), 1 second agonist application, FIG. 4): ~400%
increase of maximal response to ACh (maximum amplitude) (α7-nicotinic receptor; 5-hydroxyindole 500 μM against a range of ACh concentrations, FIG. 3): 2 fold
increase in efficacy of agonists at nicotinic receptors (α7-nicotinic receptor; general statement): greater than 2 fold
increase in efficacy of various nicotinic agonists afforded by 5-hydroxyindole (α7-nicotinic receptor; modulator 1 mM 5-OHi, ACh 3 mM, AR-R 17779 100 μM, FIG. 5): seen with all nicotinic agonists tested
current induced when applied by itself (α7-nicotinic receptor; no agonist, oocytes injected with cRNA for α7 nicotinic receptors): did not induce current

NCCc1c[nH]c2ccc(O)cc12 [serotonin]
positive modulation on ACh activity (efficacy enhancing activity) (α7-nicotinic receptor): did not increase efficacy
positive modulation on ACh activity (efficacy enhancing activity) (α7-nicotinic receptor; listed as 5-HT): unable to reproduce the finding that 5-HT increases activity

NCC(=O)O [Glycine]
effect on 5-HT3 receptors (5-HT3 receptors): no effect
